For the first assay, the target named is Fasciola hepatica TIM (FhTIM) (Fasciola hepatica, UniProt S4UI50). Put plainly: Inhibition of recombinant FhTIM, coupled enzyme assay. The format is biochemical. The note with it: Table 1S, screening of 340 compounds in FhTIM; table head prints no unit, µM per b8/b9; read-out: IC50. The method, boiled down: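 E. coli-expressed FhTIM preincubated with compound 1 h at 37 °C in 100 mM triethanolamine, 10 mM EDTA, pH 7.4, 10% DMSO. Aliquot diluted into coupled assay (1 mM glyceraldehyde-3-phosphate, 0.2 mM NADH, α-glycerol phosphate dehydrogenase, pH 7.4) with NADH decrease at 340 nm, 38 °C. Triplicate, two independent experiments.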
Chain of Fasciola hepatica TIM (FhTIM) (S4UI50 entry or part of it): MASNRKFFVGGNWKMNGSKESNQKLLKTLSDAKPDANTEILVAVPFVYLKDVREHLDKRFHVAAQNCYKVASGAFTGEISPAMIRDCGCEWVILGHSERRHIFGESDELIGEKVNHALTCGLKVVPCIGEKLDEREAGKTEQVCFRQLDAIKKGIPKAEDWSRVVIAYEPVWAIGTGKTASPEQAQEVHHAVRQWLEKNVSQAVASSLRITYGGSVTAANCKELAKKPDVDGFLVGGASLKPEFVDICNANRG
Broadly, the IC50 is the midpoint of a concentration-inhibition curve. With `ON=Cc1ccc(O)cc1` [Compound 1113], the IC50 is greater than 100 µM.

On to `C=CCn1c(C(=O)CN2CCN(Cc3ccccc3)CC2)csc1=NN=CC=Cc1ccco1` [Compound 1114], for which the IC50 is greater than 100 µM.

Regarding `C=CCn1c(C(=O)CNN2CCN(C/C=C/c3ccccc3)CC2)csc1=NN=C/C=C/c1ccco1` [Compound 1115], the IC50 is greater than 100 µM.

`C=CCn1c(C(=O)CN2CCSCC2)csc1=NN=CC=Cc1ccco1` [Compound 1116]: the IC50 was greater than 100 µM.

With `C=CCn1c(C(=O)N2CCN(Cc3ccccc3)CC2)csc1=NN=CC=Cc1ccco1` [Compound 1117], the IC50 is greater than 100 µM.

For `C=CCn1c(-c2csc(=NN=CC=Cc3cccs3)n2CC=C)csc1=NN=CC=Cc1cccs1` [Compound 1118], the IC50 is greater than 100 µM.

As for `C(=Cc1ccccc1)CCN1CCN(CCC=Cc2ccccc2)CC1` [Compound 1119], the IC50 was greater than 100 µM.

As for `NNC(=O)c1ccncc1` [Compound 1120], the IC50 is greater than 100 µM.

Take `Cc1ccc(-c2cc(C(F)(F)F)nn2-c2ccc(S(N)(=O)=O)cc2)cc1` [Compound 1121]: the IC50 was greater than 100 µM.

With `C=CCn1c(C(=O)NN2CCOCC2)csc1=NN=CC=Cc1ccco1` [Compound 1124], the IC50 was greater than 100 µM.

On to `C=CCN1C(=O)CSC1=NN=C(C)[C@H]1CC[C@H]2[C@@H]3CC=C4CC(O)CC[C@]4(C)[C@H]3CC[C@]12C` (stereo partly drawn) [Compound 1125], for which the IC50 was greater than 100 µM.

As to `C=CCn1c(C(=O)O)csc1=NN=CC=Cc1cccs1` [Compound 1126], the half-maximal inhibitory concentration (IC50) was greater than 100 µM.

On to `C=CCn1c(C)csc1=NN=CC=Cc1cccs1` [Compound 1128], for which the IC50 was greater than 100 µM.

In the case of `CCOC(=O)c1cc2c(n1CC)C(=O)C(Oc1ccc(Cl)cc1)=CC2=O` [Compound 1129], the 50% inhibitory concentration (IC50) is greater than 100 µM.

As for `C=CCn1c(C)csc1=NN=Cc1ccc(S(=O)(=O)O)o1` [Compound 1130], the IC50 was greater than 100 µM.

Consider `Cc1csc(=NN=CC=Cc2ccco2)n1-c1ccccc1` [Compound 1131], for which the half-inhibitory concentration (IC50) is greater than 100 µM.

Turning to `C(=Cc1ccco1)C=NN=c1scc(-c2ccccc2)n1-c1ccccc1` [Compound 1132], the IC50 is greater than 100 µM.

Take `C=CCn1c(-c2ccc(OC)cc2)csc1=NN=CC=Cc1cccs1` [Compound 1133]: the IC50 was greater than 100 µM.

As to `C=CCn1c(C)csc1=NN=CC=Cc1ccccc1` [Compound 1135], the IC50 was greater than 100 µM.

For `O=C(O)c1csc(=NN=CC=CC=Cc2cccs2)n1-c1ccccc1` [Compound 1136], the IC50 is greater than 100 µM.

Regarding `C=CCn1c(-c2ccc(Br)cc2)csc1=NN=C/C=C/c1cccs1` [Compound 1137], the IC50 lay within 50 to 100 µM.

Take `C=CCN1C(=O)CSC1=NN=CC=Cc1cccs1` [Compound 1138]: the IC50 is greater than 100 µM.

Turning to `C=CCN1C(=O)C(CC(=O)O)SC1=NN=Cc1cccs1` (stereo not drawn) [Compound 1139], the IC50 is 50 to 100 µM.

`C(=Cc1ccco1)C=NN=CC=Cc1ccco1` [Compound 1140]: the IC50 is greater than 100 µM.

`[Se]=C(NCCN1CCOCC1)NN=CC=Cc1ccco1` [Compound 1147]: the IC50 fell in the range of 50 to 100 µM.

Take `CSc1ccc(C=CC(=O)c2ccc([N+](=O)[O-])cc2)cc1` [Compound 1155]: the IC50 was greater than 100 µM.

Regarding `CCCCN1C(=O)C(=Cc2ccc([N+](=O)[O-])cc2)C(=O)N(CCCC)S1(=O)=O` [Compound 1165], the IC50 is greater than 100 µM.

As to `Nc1ccc([N+](=O)[O-])cc1` [Compound 1196], the concentration for half-maximal inhibition (IC50) is greater than 100 µM.

In the case of `[O-][n+]1onc2ccccc21` [Compound 1197], the IC50 was greater than 100 µM.

Turning to `Oc1ccccc1CN1N=Cc2ccccc2OB1F` [Compound 1198], the IC50 is greater than 100 µM.

On to `Brc1ccc(-c2c[se]c(=NN=CC=Cc3ccccc3)n2CCN2CCOCC2)cc1` [Compound 1222], for which the IC50 lay in the range of 50 to 100 µM.

As to `O=C1C(=CC=Cc2ccco2)CCC1=CC=Cc1ccco1` [Compound 1223], the IC50 was in the range of 50 to 100 µM.

As for `O=C1C(=CC=Cc2cccs2)CCCC1=CC=Cc1cccs1` [Compound 1245], the IC50 is greater than 100 µM.

As for `O=C1C(=CC=Cc2ccccc2)CCC1=CC=Cc1ccccc1` [Compound 1246], the IC50 is 50 to 100 µM.

In the case of `O=C1C(=Cc2ccccc2)CCC1=Cc1ccccc1` [Compound 1247], the IC50 was 50 to 100 µM.

For the molecule `O=C1C(=Cc2cccs2)CCC1=Cc1cccs1` [Compound 1248], the IC50 is greater than 100 µM.

On to `O=C(NN=Cc1ccccc1O)c1ccc(Cl)cc1` [Compound 1249], for which the IC50 was greater than 100 µM.

Consider `O=C(NN=Cc1ccccc1O)c1ccccc1Cl` [Compound 1250], for which the IC50 was greater than 100 µM.

`CC(=NN=c1[nH]c(C(=O)O)cs1)C1CCC2C3CC=C4CC(O)CCC4(C)C3CCC12C` (stereo not drawn) [Compound 1258]: the IC50 was greater than 100 µM.

Turning to `CC12CCC(O)CC1=CCC1C2CCC2(C)C(C(=O)C=Cc3ccccc3Cl)CCC12` (stereo not drawn) [Compound 1259], the IC50 is greater than 100 µM.

With `O=C(C=Cc1cccc2ccccc12)c1ccccc1` [Compound 1266], the IC50 was greater than 100 µM.

With `O=C(C=Cc1cccc2ccccc12)c1ccccc1O` [Compound 1269], the IC50 was greater than 100 µM.

With `C=CCn1c(-c2ccc(Br)cc2)csc1=NN=C(C)C1CCC2C3CC=C4CC(O)CCC4(C)C3CCC12C` (stereo not drawn) [Compound 1272], the IC50 was greater than 100 µM.

For `CC12CCC(O)CC1=CCC1C2CCC2(C)C(C(=O)C=CC=Cc3ccccc3)CCC12` (stereo not drawn) [Compound 1279], the IC50 was greater than 100 µM.

`CC(=O)Nc1ccc(C=C2CN(C)CC(=Cc3ccc(NC(C)=O)cc3)C2=O)cc1` [Compound 1281]: the 50% inhibitory concentration (IC50) was greater than 100 µM.

In the case of `CN1CC(=CC=Cc2ccco2)C(=O)C(=CC=Cc2ccco2)C1` [Compound 1282], the IC50 is greater than 100 µM.

In the case of `Cc1c(C=NNC(N)=S)no[n+]1[O-]` [Compound 1283], the concentration for half-maximal inhibition (IC50) is greater than 100 µM.

Regarding `CN1C/C(=C\C=C\c2ccccc2)C(=O)/C(=C/C=C/c2ccccc2)C1` [Compound 1284], the IC50 lay within 50 to 100 µM.

Take `CN1CC(=CC=Cc2cccs2)C(=O)C(=CC=Cc2cccs2)C1` [Compound 1285]: the IC50 was greater than 100 µM.

Regarding `CN1CC(=Cc2ccc(S(=O)(=O)O)o2)C(=O)C(=Cc2ccc(S(=O)(=O)O)o2)C1` [Compound 1286], the IC50 was greater than 100 µM.

Still in this assay, the particulars now being: recombinant FhTIM, 1 h incubation with compound at 37 °C; read-out: IC50.
With `Nc1ccc2nc3ccc(F)cc3nc2c1` [Compound 1149], the IC50 came to 50 ± 6 µM.

Source of the values: publication PMC7018972, “Novel and selective inactivators of Triosephosphate isomerase with anti-trematode activity” (Scientific Reports, 2020).
